The NIST ThermoML archive (doi:10.1021/je800110r)

Details: Liquid, Vibrating tube method

CCCCCCCCCC [decane]
Details | mass density [kg/m3]
323.14 K, 29147 kPa | 730.4
323.14 K, 29286 kPa | 730.6
323.14 K, 29368 kPa | 730.6
323.14 K, 29415 kPa | 730.5
323.14 K, 29637 kPa | 730.8
323.14 K, 29675 kPa | 730.8
323.14 K, 29724 kPa | 730.9
323.14 K, 29765 kPa | 730.8
323.14 K, 29800 kPa | 730.9
323.14 K, 29840 kPa | 731
323.14 K, 29872 kPa | 731
323.14 K, 29908 kPa | 730.9
323.14 K, 29935 kPa | 731
323.14 K, 29962 kPa | 730.9
323.14 K, 29999 kPa | 731.1
323.14 K, 30026 kPa | 731
323.14 K, 30054 kPa | 731.1
323.14 K, 30082 kPa | 731.1
323.14 K, 30114 kPa | 731.1
323.14 K, 30147 kPa | 731.1
323.14 K, 30180 kPa | 731.2
323.14 K, 30217 kPa | 731.1
323.14 K, 30240 kPa | 731.2
323.14 K, 30273 kPa | 731.2
323.14 K, 30306 kPa | 731.2
323.14 K, 30353 kPa | 731.3
323.14 K, 30381 kPa | 731.3
323.14 K, 30409 kPa | 731.3
323.14 K, 30447 kPa | 731.3
323.14 K, 30475 kPa | 731.3
323.14 K, 30513 kPa | 731.3
323.14 K, 30547 kPa | 731.4
323.14 K, 30586 kPa | 731.4
323.14 K, 30624 kPa | 731.4
323.14 K, 30652 kPa | 731.6
323.14 K, 30686 kPa | 731.6
323.14 K, 30720 kPa | 731.5
323.14 K, 30753 kPa | 731.7
323.14 K, 30787 kPa | 731.5
323.14 K, 30816 kPa | 731.5
323.14 K, 30851 kPa | 731.7
323.14 K, 30890 kPa | 731.5
323.14 K, 30919 kPa | 731.6
323.14 K, 30964 kPa | 731.6
323.14 K, 30993 kPa | 731.6
323.14 K, 31028 kPa | 731.6
323.14 K, 31068 kPa | 731.8
323.14 K, 31097 kPa | 731.8
323.14 K, 31257 kPa | 731.9
323.14 K, 31307 kPa | 732
323.14 K, 31343 kPa | 731.9
323.14 K, 31374 kPa | 732
323.14 K, 31421 kPa | 732.1
323.14 K, 31463 kPa | 732
323.14 K, 31495 kPa | 732.1
323.14 K, 31537 kPa | 732.1
323.14 K, 31569 kPa | 732
323.14 K, 31606 kPa | 732.1
323.14 K, 31636 kPa | 732.2
323.14 K, 31661 kPa | 732.2
323.14 K, 31690 kPa | 732.1
323.14 K, 31715 kPa | 732.2
323.14 K, 31736 kPa | 732.2
323.14 K, 31774 kPa | 732.2
323.14 K, 31812 kPa | 732.3
323.14 K, 31838 kPa | 732.2
323.14 K, 31872 kPa | 732.3
323.14 K, 31911 kPa | 732.5
323.14 K, 31949 kPa | 732.3
323.14 K, 31979 kPa | 732.3
323.14 K, 32017 kPa | 732.4
323.14 K, 32056 kPa | 732.4
323.14 K, 32082 kPa | 732.5
323.14 K, 32116 kPa | 732.5
323.14 K, 32143 kPa | 732.5
323.14 K, 32175 kPa | 732.5
323.14 K, 32205 kPa | 732.5
323.14 K, 32236 kPa | 732.4
323.14 K, 32266 kPa | 732.6
323.14 K, 32305 kPa | 732.5
323.14 K, 32332 kPa | 732.6
323.14 K, 32363 kPa | 732.6
323.14 K, 32403 kPa | 732.7
323.14 K, 32438 kPa | 732.7
323.14 K, 32465 kPa | 732.8
323.14 K, 32522 kPa | 732.8
323.14 K, 32717 kPa | 732.9
323.14 K, 32817 kPa | 733
323.14 K, 32841 kPa | 733
323.14 K, 32902 kPa | 733
323.14 K, 32934 kPa | 733.1
323.14 K, 32966 kPa | 732.9
323.14 K, 32994 kPa | 733.1
323.14 K, 33023 kPa | 733
323.14 K, 33048 kPa | 733
323.14 K, 33069 kPa | 733.1
323.14 K, 33090 kPa | 733.2
323.14 K, 33114 kPa | 733.2
323.14 K, 33147 kPa | 733.2
323.14 K, 33173 kPa | 733.2
323.14 K, 33193 kPa | 733.3
323.14 K, 33219 kPa | 733.3
323.14 K, 33249 kPa | 733.2
323.14 K, 33274 kPa | 733.3
323.14 K, 33300 kPa | 733.3
323.14 K, 33334 kPa | 733.3
323.14 K, 33356 kPa | 733.2
323.14 K, 33387 kPa | 733.4
323.14 K, 33504 kPa | 733.4
323.14 K, 33553 kPa | 733.5
323.14 K, 33615 kPa | 733.5
323.14 K, 33644 kPa | 733.5
323.14 K, 33671 kPa | 733.6
323.14 K, 33690 kPa | 733.5
323.14 K, 33720 kPa | 733.5
323.14 K, 33749 kPa | 733.6
323.14 K, 33775 kPa | 733.6
323.14 K, 33801 kPa | 733.6
323.14 K, 33824 kPa | 733.6
323.14 K, 33858 kPa | 733.7
323.14 K, 33895 kPa | 733.7
323.14 K, 33921 kPa | 733.8
323.14 K, 33948 kPa | 733.7
323.14 K, 33971 kPa | 733.8
323.14 K, 34266 kPa | 733.9
323.14 K, 34292 kPa | 734
323.14 K, 34329 kPa | 733.9
323.14 K, 34363 kPa | 733.9
323.15 K, 688 kPa | 707.4
323.15 K, 762 kPa | 707.5
323.15 K, 781 kPa | 707.5
323.15 K, 802 kPa | 707.6
323.15 K, 828 kPa | 707.5
323.15 K, 851 kPa | 707.6
323.15 K, 875 kPa | 707.7
323.15 K, 894 kPa | 707.6
323.15 K, 924 kPa | 707.7
